{"source": "patent US8957024B2", "about": "“Composition and methods for reducing opioid-induced pruritus” (priority 2011, dated 2015)", "key": {"[1]": {"test_system": "mice", "details": "mouse, in vivo"}, "[2]": {"biological_target": "T1, HA-MOR1 (Mus musculus, UniProt P42866)", "T1 construct": "expressed in transfected cells", "experiment": "Receptor internalization assay (ELISA, immunofluorescence staining) in HEK 293 cells: MOR1", "type": "cell-based", "details": "HEK 293 cells expressing MOR1 only, or MOR1 and GRPR; agonist 1 μM"}, "[3]": {"biological_target": "T2, HA-MOR1D (Mus musculus, UniProt P42866)", "T2 construct": "expressed in transfected cells", "experiment": "Receptor internalization assay (ELISA, immunofluorescence staining) in HEK 293 cells: MOR1D", "type": "cell-based", "details": "HEK 293 cells expressing MOR1D, or MOR1D and GRPR; agonist 1 μM"}, "[4]": {"test_system": "mice", "experiment": "Gastrin-releasing peptide induced scratching (GIS)", "type": "in vivo, mouse"}, "[5]": {"test_system": "HEK 293 cells expressing MOR1D alone", "experiment": "Calcium imaging, cells expressing MOR1D alone", "type": "cell-based, mouse"}, "[6]": {"test_system": "HEK 293 cells co-expressing MOR1 and GRPR", "experiment": "Calcium imaging, cells co-expressing MOR1 and GRPR", "type": "cell-based, mouse"}, "[7]": {"test_system": "mice", "experiment": "Von Frey assay, naive mice and CFA inflammatory pain model", "type": "in vivo, mouse", "description": "In CFA induced inflammatory pain, mice received an injection of CFA (20 μl, Sigma) into the plantar of the right hindpaw. Mechanical sensitivity was assessed using von Frey assay.\nMechanical sensitivity was assessed using a set of calibrated von Frey filaments (Stoelting). Each filament was applied 5 consecutive times and the smallest filament that evoked reflexive flinches of the paw on 3 of the 5 trials was taken as paw withdrawal threshold."}, "[8]": {"biological_target": "T3, GRPR/MOR1D interaction (Mus musculus, UniProt P21729)", "T3 construct": "co-IP analysis using the membrane extracts of the spinal cord injected with Tat-MOR1DCT and the vehicle; from tissue; host or cells: lumbar spinal cord membrane extract after intrathecal injection", "T3 sequence (P21729 whole entry)": "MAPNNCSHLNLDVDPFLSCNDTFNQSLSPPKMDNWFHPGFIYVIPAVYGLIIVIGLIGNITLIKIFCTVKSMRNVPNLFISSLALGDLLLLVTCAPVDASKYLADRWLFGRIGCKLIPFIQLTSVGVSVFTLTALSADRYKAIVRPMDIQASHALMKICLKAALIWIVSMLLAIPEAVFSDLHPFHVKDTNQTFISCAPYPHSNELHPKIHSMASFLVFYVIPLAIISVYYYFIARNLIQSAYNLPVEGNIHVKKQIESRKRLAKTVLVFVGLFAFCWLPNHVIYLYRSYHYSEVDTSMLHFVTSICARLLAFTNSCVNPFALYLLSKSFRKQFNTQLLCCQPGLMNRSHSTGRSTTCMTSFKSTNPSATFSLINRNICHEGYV", "details": "in vivo"}, "[9]": {"biological_target": "T4, Myc-GRPR (Mus musculus, UniProt P21729)", "T4 construct": "expressed in transfected cells", "T4 sequence (P21729 whole entry)": "as above", "experiment": "Receptor internalization assay (ELISA, immunofluorescence staining) in HEK 293 cells: GRPR", "type": "cell-based", "details": "agonist 1 μM, 30 min"}, "[10]": {"test_system": "mice", "details": "mouse, in vivo", "remark": "listed apart in the source"}, "[11]": {"test_system": "MOR1 mRNA", "experiment": "qRT-PCR after i.t. siRNA: MOR1 mRNA", "type": "in vivo, mouse", "details": "spinal cord", "description": "(§1) Selective siRNA duplexes for mouse Oprm exons, PLCβ1/3 and IP3R3 were intrathecally injected daily for 3 consecutive days. Behavior testing and tissue harvest were carried out at 48 hr after the last injection. RNA was dissolved in diethyl pyrocarbonate-treated PBS and prepared immediately prior to administration by mixing the RNA solution with a transfection reagent, ExGen 500 (Fermentas). The final concentration of RNA was 1.25 μg/5 μl. siRNA or ExGen 500 alone (defined as vehicle) in 5 μl was delivered to the lumbar region of the spinal cord. The injection was given daily for 3 consecutive days (Luo et al., 2005; Tan et al., 2009). Behavior testing and tissue harvest were carried out 48 hr after the last injection.\n(§2) LCM were performed as previously described (van Baarlen et al., 2009) with minor modifications. Frozen sections (30 μm thickness) of the lumber spinal cord were cut at −20° C. and stored at −80° C. […]\n(§3) RNA was isolated from the LCM sample caps using the PicoPure RNA isolation kit (Arcturus) following manufacturer's recommendations. […] Quantitative PCR amplification was performed in 96-well plates on an Mx3000 QPCR system (Stratagene). […]\n(§4) Expression of target mRNA was normalized to expression of 18S rRNA. The differences in mRNA expression between treatments were analyzed using the Comparative CT Method (Gallup et al., 2005). […]"}, "[12]": {"test_system": "MOR1D mRNA", "experiment": "qRT-PCR after i.t. siRNA: MOR1D mRNA", "type": "in vivo, mouse", "details": "spinal cord", "description": "as §1, §2, §3, §4"}, "[13]": {"test_system": "HEK 293 cells containing only GRPR", "experiment": "Calcium imaging, cells containing only GRPR", "type": "cell-based, mouse"}, "[14]": {"details": "HEK 293 cells expressing GRPR alone"}}, "note": "“Also recorded” adds a separate entry of the source."}
{"compound": "AAACCCUGCAAGAGUUGCAuu (AAACCCUGCAAGAGUUGCAUU; chemistry not given here) [exon 7 siRNA, siRNA duplex for mouse Oprm exon 7]", "values": [{"measurement": "effect of siRNA knockdown on MIA", "setting": "[1]", "value": "had no effect on MIA"}]}
{"compound": "gastrin-releasing peptide [GRP]", "values": [{"measurement": "agonist-induced MOR1 internalization", "setting": "[2]", "value": "neither MOR1D nor MOR1 internalized"}, {"measurement": "agonist-induced MOR1D internalization", "setting": "[3]", "value": "neither MOR1D nor MOR1 internalized; also recorded: failed to cause MOR1D internalization"}, {"measurement": "GIS in MOR KO vs wild-type littermate mice", "setting": "[4]; i.t. GRP", "value": "normal; also recorded: comparable"}, {"measurement": "calcium response to agonist", "setting": "[5]", "value": "neither morphine nor GRP generated a calcium response"}, {"measurement": "calcium response to agonist", "setting": "[6]", "value": "they responded to GRP"}]}
{"compound": "D-Phe-6-Bn(6-13)OMe [GRPR antagonist]", "values": [{"measurement": "effect on analgesic effect of intrathecal morphine in CFA model", "setting": "[7]; GRPR antagonist 1.0 nmol co-injection, morphine 0.3 nmol i.t.", "value": "not significantly affected"}, {"measurement": "effect of the agent itself on acute pain, von Frey", "setting": "[7]; i.t., without morphine", "value": "no significant effect on acute pain; also recorded: did not significantly affect the acute pain"}, {"measurement": "effect of the agent itself on acute pain, tail immersion assay", "setting": "[1]", "value": "no significant effect on acute pain; also recorded: did not significantly affect the acute pain"}, {"measurement": "effect on MIA", "setting": "[1]", "value": "remained unchanged; also recorded: not significantly affected"}]}
{"compound": "YGRKKRRQRRRRNEEPSS [Tat-MOR1DCT]", "values": [{"measurement": "effect on MIA", "setting": "[1]", "value": "unperturbed; also recorded: had no effect on MIA"}, {"measurement": "amount of GRPR precipitated by MOR1D antibody (GRPR/MOR1D interaction)", "setting": "[8]", "value": "significantly reduced the amount of GRPR precipitated by MOR1D antibody; also recorded: markedly reduces co-immunoprecipitation of GRPR and MOR1D; also recorded: decreased GRPR/MOR1D interaction"}, {"measurement": "effect on GIS", "setting": "[4]; mouse, in vivo", "value": "unperturbed; also recorded: without affecting GIS"}]}
{"compound": "C[C@@H](NC(=O)[C@@H](N)Cc1ccc(O)cc1)C(=O)NCC(=O)N(C)[C@@H](Cc1ccccc1)C(=O)NCCO", "note": "[DAMGO]", "values": [{"measurement": "agonist-induced MOR1 internalization", "setting": "[2]", "value": "can be internalized"}, {"measurement": "agonist-induced MOR1D internalization", "setting": "[3]", "value": "can be internalized"}, {"measurement": "agonist-induced GRPR internalization", "setting": "[9]; [14]", "value": "cannot internalize GRPR"}]}
{"compound": "COc1ccc2c(c1)CC[C@@H]1[C@@H]2CC[C@]2(C)[C@@H](NCCCCCCN3C(=O)C=CC3=O)CC[C@@H]12", "note": "[U73122]", "values": [{"measurement": "effect on MIA", "setting": "[1]", "value": "did not impact MIA; also recorded: not significantly affected"}]}
{"compound": "COC(=O)/C=C/C(=O)N[C@@H]1CC[C@@]2(O)[C@H]3Cc4ccc(O)c5c4[C@@]2(CCN3CC2CC2)[C@H]1O5", "note": "[beta-FNA]", "values": [{"measurement": "effect on MIS", "setting": "[10]", "value": "significantly blocked"}]}
{"compound": "C=CCN1CC[C@]23c4c5ccc(O)c4O[C@H]2C(=O)CC[C@@]3(O)[C@H]1C5", "note": "[naloxone]", "values": [{"measurement": "effect on GIS", "setting": "[4]; naloxone 3 mg/kg s.c.", "value": "did not change GIS; also recorded: not significantly affected"}]}
{"compound": "2-APB", "values": [{"measurement": "effect on MIA", "setting": "[1]", "value": "no effect on MIA"}]}
{"compound": "UCUGGAAGCAGAAACUGCUuu (UCUGGAAGCAGAAACUGCUUU; chemistry not given here) [exon 4 siRNA, siRNA duplex for mouse Oprm exon 4]", "values": [{"measurement": "effect of siRNA knockdown on MIA", "setting": "[1]", "value": "markedly attenuated MIA; also recorded: significantly reduced morphine analgesic effect"}, {"measurement": "spinal MOR1 mRNA level", "setting": "[11]", "value": "selectively decreased; also recorded: significantly knocked down"}]}
{"compound": "UGAGGAACCUUCUUCCUGAuu (UGAGGAACCUUCUUCCUGAUU; chemistry not given here) [exon 9 siRNA, siRNA duplex for mouse Oprm exon 9]", "values": [{"measurement": "effect of siRNA knockdown on MIA", "setting": "[1]", "value": "had no effect on MIA"}, {"measurement": "effect of siRNA knockdown on GIS", "setting": "[4]; mouse, in vivo", "value": "no significant reduction of GIS; also recorded: not affected"}, {"measurement": "spinal MOR1D mRNA level", "setting": "[12]", "value": "significantly reduced"}]}
{"compound": "CN1CC[C@]23c4c5ccc(O)c4O[C@H]2[C@@H](O)C=C[C@H]3[C@H]1C5", "note": "[morphine]", "values": [{"measurement": "calcium response to agonist", "setting": "[13]", "value": "failed to evoke Ca2+ spikes"}, {"measurement": "mechanical threshold in CFA-treated mice", "setting": "[7]; i.t. morphine 0.3 nmol, 24 hr after intraplantar CFA", "value": "significantly increased mechanical threshold"}, {"measurement": "MIA enhancement when the morphine dose increased from 0.3 nmol to 1.0 nmol", "setting": "[1]", "value": 81, "unit": "%"}, {"measurement": "MIA in mice with acute morphine tolerance", "setting": "[1]", "value": "significant reduction of MIA relative to the saline control"}, {"measurement": "MIA in mice with chronic morphine tolerance", "setting": "[1]", "value": "significant reduction of MIA relative to the saline control; also recorded: showed antinociceptive tolerance"}, {"measurement": "MIA, dose effect of i.t. morphine", "setting": "[1]", "value": "increased in a dose-dependent manner"}, {"measurement": "duration of MIA", "setting": "[1]", "value": "maintained at a maximal level for at least one hr"}, {"measurement": "time after which no scratches were seen", "setting": "[10]", "value": 40, "unit": "min"}, {"measurement": "time within which MIS increased dramatically", "setting": "[10]", "value": "≤ 10", "unit": "min"}, {"measurement": "agonist-induced GRPR internalization", "setting": "[9]; HEK 293 cells co-expressing MOR1 and GRPR", "value": "failed to induce GRPR internalization; also recorded: when co-expressed with HA-MOR1D but not HA-MOR1"}, {"measurement": "agonist-induced GRPR internalization", "setting": "[9]; [14]", "value": "failed to induce GRPR internalization"}, {"measurement": "calcium response to agonist", "setting": "[5]", "value": "neither morphine nor GRP generated a calcium response"}]}
